Measured values published in paper PMC10434765, “Exploring the potential of propanamide-sulfonamide based drug conjugates as dual inhibitors of urease and cyclooxygenase-2: biological and their in silico studies” (Frontiers in Chemistry, 2023).
Like-named read-outs stand apart in the source and are kept apart here.

Legend:
jack bean urease [1] = target: T1, jack bean urease (Canavalia ensiformis, UniProt P07374); settings: for Vmax (app): maximum rate at 20 µM of inhibitor concentration; for Mode of inhibition: urea 0.5-4.0 mM, inhibitor 0-20 µM; for % inhibition of urease: value in parentheses beside IC50, n = 3, concentration not given
T1 sequence (P07374 whole entry, looked up): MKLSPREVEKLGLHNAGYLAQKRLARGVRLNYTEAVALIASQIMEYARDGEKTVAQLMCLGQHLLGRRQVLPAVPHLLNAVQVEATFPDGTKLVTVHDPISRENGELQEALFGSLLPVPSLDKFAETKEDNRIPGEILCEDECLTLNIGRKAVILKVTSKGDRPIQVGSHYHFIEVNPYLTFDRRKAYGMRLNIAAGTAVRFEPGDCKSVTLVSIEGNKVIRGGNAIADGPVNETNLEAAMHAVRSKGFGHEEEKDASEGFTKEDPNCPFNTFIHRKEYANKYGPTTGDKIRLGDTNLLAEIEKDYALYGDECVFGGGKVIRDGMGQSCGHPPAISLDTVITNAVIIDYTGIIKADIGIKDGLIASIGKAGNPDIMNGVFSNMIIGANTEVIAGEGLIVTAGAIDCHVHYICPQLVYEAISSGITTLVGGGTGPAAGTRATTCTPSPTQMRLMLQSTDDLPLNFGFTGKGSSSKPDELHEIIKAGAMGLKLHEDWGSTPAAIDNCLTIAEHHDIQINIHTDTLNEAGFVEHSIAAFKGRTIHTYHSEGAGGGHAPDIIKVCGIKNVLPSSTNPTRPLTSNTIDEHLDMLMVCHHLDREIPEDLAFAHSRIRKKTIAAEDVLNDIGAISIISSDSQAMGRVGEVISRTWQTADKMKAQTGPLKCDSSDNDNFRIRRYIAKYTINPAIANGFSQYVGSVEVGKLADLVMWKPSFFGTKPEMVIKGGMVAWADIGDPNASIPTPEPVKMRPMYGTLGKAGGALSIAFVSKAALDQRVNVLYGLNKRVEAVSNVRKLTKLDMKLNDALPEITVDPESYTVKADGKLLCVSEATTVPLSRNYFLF

jack bean urease [2] = target: T1, jack bean urease; assay: biochemical
Method: Each tube received 400 µL of urea (20 mM) as substrate, which was then incubated for 10 min at the same temperature.
Each inhibitor’s binding mechanism was tested at various doses (0–20 µM) for kinetics investigations. […] Lineweaver Burk plots were drawn using GraphPad PRISM 7.0 to determine the values of Km (app), Vmax (app), and Ki (inhibition constant).

[3] = system: carrageenan-induced acute inflammation in mice; assay: Carrageenan-induced paw edema anti-inflammatory study; format: in vivo; settings: 10 mg/kg intraperitoneally, n = 6
Method: As previously mentioned in our study, carrageenan-induced acute inflammation in mice was used to measure the anti-inflammatory effect ([Ahmed et al., 2018b]). Six groups of mice were formed and each group comprised six mice, the mice fasted 16 h before of induction of inflammation by injecting the phlogistic agent (carrageenan). The right hind paw of each mouse was measured before and after the 100 µL injection of the carrageenan (1% in 0.9% saline). The test substances, standard medication (indomethacin), and control (0.9% saline) were administered intraperitoneally at 10 mg/kg body weight. For 3 h, and after the 1-h interval, the thickness (mm) of the right hind paw of each mouse was measured. The difference in thickness of paw edema of control and test substance was used to determine the percentage inhibition of inflammation by the formula given below. Percentage inhibition of inflammation=Ct−CocontrolCt−Cotreated/Ct−Cocontrol×100 (2)
Where Ct and Co are the right hind paw thickness after and before carrageenan injection.

COX-2 enzyme = target: T2, COX-2 enzyme (Homo sapiens, UniProt P35354); assay: COX-2 inhibitory assay (Cayman kit); format: biochemical; settings: n = 3
T2 construct: purchased Cayman Chemical Company, United States Item No. 760151
T2 sequence (P35354 18-604): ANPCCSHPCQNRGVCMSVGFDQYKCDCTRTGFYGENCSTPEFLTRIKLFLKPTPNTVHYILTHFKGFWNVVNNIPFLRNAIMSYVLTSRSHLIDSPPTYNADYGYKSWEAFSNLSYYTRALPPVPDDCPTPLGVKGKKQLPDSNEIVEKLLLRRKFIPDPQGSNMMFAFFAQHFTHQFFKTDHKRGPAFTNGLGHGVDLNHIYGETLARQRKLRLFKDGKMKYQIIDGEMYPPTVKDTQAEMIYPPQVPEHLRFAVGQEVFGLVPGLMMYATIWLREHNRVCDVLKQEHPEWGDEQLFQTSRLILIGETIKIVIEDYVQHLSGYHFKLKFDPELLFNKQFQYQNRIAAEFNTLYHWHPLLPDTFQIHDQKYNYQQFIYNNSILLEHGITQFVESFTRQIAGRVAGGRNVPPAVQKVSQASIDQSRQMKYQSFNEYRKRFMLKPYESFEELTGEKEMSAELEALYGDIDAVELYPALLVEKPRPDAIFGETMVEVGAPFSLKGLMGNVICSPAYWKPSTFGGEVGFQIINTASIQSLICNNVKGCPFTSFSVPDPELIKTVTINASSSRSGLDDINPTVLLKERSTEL
Method: For the initial activity assay, 150 µL buffer, 10 µL heme, and 10 µL COX-2 enzyme were mixed in a well whereas 110 µL buffer, 10 µL heme, 10 µL COX-2 enzyme, and 40 µL test inhibitor (10 µM) were mixed for inhibitory assay using 96 wells plate.

SMILES | Vmax (app) (jack bean urease [1]; Lineweaver Burk plot) | Mode of inhibition (jack bean urease [1]) | % inhibition of urease (jack bean urease [1]) | melting point | IC50 (jack bean urease [2]) | Ki (jack bean urease [2]) | Paw edema in mm (mean ± SEM) ([3]; 0 h) | % inhibition of paw edema ([3]; 1 h) | Paw edema in mm (mean ± SEM) ([3]; 1 h) | % inhibition of paw edema ([3]; 2 h) | Paw edema in mm (mean ± SEM) ([3]; 2 h) | % inhibition of paw edema ([3]; 3 h) | Paw edema in mm (mean ± SEM) ([3]; 3 h) | inhibition at 10 µM (COX-2 enzyme) | IC50 (jack bean urease [1]; read-out: IC50 (µM), mean ± SEM, jack bean urease, n = 3, thiourea as standard) | Ki (jack bean urease [1]; read-out: Ki (inhibition constant), secondary Lineweaver Burk plot) | Km (jack bean urease [1]; read-out: Km (app), Michaelis constant at 20 µM of inhibitor concentration, Lineweaver Burk plot)
COc1ccc2cc([C@H](C)C(=O)Nc3ccc(S(N)(=O)=O)cc3)ccc2c1 [Conjugate 3, (S)-2-(6-methoxynaphthalen-2-yl)-N-(4-sulfamoylphenyl)propanamide] | 2.57 µM/min | Competitive | 89.4% | 208 to 210 °C | 6.69 ± 0.11 µM | 2.4 µM | – | – | – | – | – | – | – | – | – | – | –
COc1ccc2cc([C@H](C)C(=O)Nc3ccc(S(=O)(=O)Nc4onc(C)c4C)cc3)ccc2c1 [Conjugate 4, (S)-N-(4-(N-(3,4-dimethylisoxazol-5-yl)sulfamoyl)phenyl)-2-(6-methoxynaphthalen-2-yl)propanamide] | – | – | 94.1% | 241 to 243 °C | 25.63 ± 0.24 µM | – | 1.80 ± 0.04 (−) mm | 8.2% | 2.72 ± 0.12 mm | 45.5% | 2.53 ± 0.09 mm | 78.0% | 2.36 ± 0.11 mm | 64.5% | – | – | –
COc1ccc2cc([C@H](C)C(=O)Nc3ccc(S(=O)(=O)Nc4nccs4)cc3)ccc2c1 [Conjugate 5, (S)-2-(6-methoxynaphthalen-2-yl)-N-(4-(N-(thiazol-2-yl)sulfamoyl)phenyl)propanamide] | 0.714 µM/min | Competitive | 88.9% | 184 to 185 °C | 5.82 ± 0.28 µM | 5.05 µM | 1.81 ± 0.05 (−) mm | 9.1% | 2.71 ± 0.09 mm | 43.3% | 2.57 ± 0.11 mm | 75.3% | 2.43 ± 0.08 mm | 61.3% | – | – | –
COc1ccc2cc([C@H](C)C(=O)Nc3ccc(S(=O)(=O)Nc4ncccn4)cc3)ccc2c1 [Conjugate 6, (S)-2-(6-methoxynaphthalen-2-yl)-N-(4-(N-(pyrimidin-2-yl)sulfamoyl)phenyl)propanamide] | 0.363 µM/min | Mixed | 90.3% | 163 to 165 °C | 4.08 ± 0.1 µM | 5.58 µM | – | – | – | – | – | – | – | – | – | – | –
COc1ccc2cc([C@H](C)C(=O)Nc3ccc(S(=O)(=O)Nc4nccc(C)n4)cc3)ccc2c1 [Conjugate 7, (S)-2-(6-methoxynaphthalen-2-yl)-N-(4-(N-(4-methylpyrimidin-2-yl)sulfamoyl)phenyl)propanamide] | 0.602 µM/min | Mixed | 84.3% | 160 to 162 °C | 16.57 ± 0.14 µM | 9.98 µM | – | – | – | – | – | – | – | – | – | – | –
COc1ccc2cc([C@H](C)C(=O)Nc3ccc(S(=O)(=O)Nc4cc(C)on4)cc3)ccc2c1 [Conjugate 8, (S)-2-(6-methoxynaphthalen-2-yl)-N-(4-(N-(5-methylisoxazol-3-yl)sulfamoyl)phenyl)propanamide] | – | – | 87.6% | 178 to 180 °C | 29.64 ± 0.27 µM | – | 1.80 ± 0.08 (−) mm | 24.1% | 2.56 ± 0.14 mm | 47.0% | 2.51 ± 0.08 mm | 82.8% | 2.23 ± 0.12 mm | 75.4% | – | – | –
COc1ccc2cc([C@H](C)C(=O)Nc3ccc(S(=O)(=O)NC(C)=O)cc3)ccc2c1 [Conjugate 9, (S)-N-(4-(N-acetylsulfamoyl)phenyl)-2-(6-methoxynaphthalen-2-yl)propanamide] | 0.66 µM/min | Mixed | 85.7% | 138 to 140 °C | 20.32 ± 0.12 µM | 2.61 µM | – | – | – | – | – | – | – | – | – | – | –
COc1ccc2cc([C@H](C)C(=O)Nc3ccc(S(=O)(=O)NC(=N)N)cc3)ccc2c1 [Conjugate 10, (S)-N-(4-(N-carbamimidoylsulfamoyl)phenyl)-2-(6-methoxynaphthalen-2-yl)propanamide] | 1.96 µM/min | Competitive | 89.1% | – | 5.06 ± 0.29 µM | 3.56 µM | – | – | – | – | – | – | – | – | – | – | –
COc1ccc2c(c1)c(CC(=O)O)c(C)n2C(=O)c1ccc(Cl)cc1 [Indomethacin, reference compound] | – | – | – | – | – | – | 1.81 ± 0.05 (−) mm | 20.1% | 2.61 ± 0.14 mm | 55.2% | 2.41 ± 0.09 mm | 86.8% | 2.14 ± 0.09 mm | – | – | – | –
COc1ccc2cc([C@H](C)C(=O)O)ccc2c1 [Naproxen, reference compound] | – | – | – | – | – | – | 1.81 ± 0.06 (−) mm | 21.1% | 2.60 ± 0.13 mm | 46.3% | 2.53 ± 0.11 mm | 76.1% | 2.41 ± 0.12 mm | – | – | – | –
NC(N)=S [Thiourea, reference compound] | 18.61 µM/min | Competitive | 92.3% | – | – | – | – | – | – | – | – | – | – | – | 22.6 ± 0.23 µM | 18.2 µM | 2180 µM
